From PMC9519446, “Discovery of an Orally Active Benzoxaborole Prodrug Effective in the Treatment of Chagas Disease in Non-human Primates” (Nature microbiology, 2022)

Experiments:
[1] = tested on: recombinant T. cruzi proteins; experiment: Luminex-based multiplex serological assay (IgG to recombinant T. cruzi proteins); assay type: in vivo, rhesus macaques (Macaca mulatta); conditions: treated animal T19
Method: (§1) Luminex-based multiplex serological assays were performed as previously described, [17]. For a number of smaller proteins, fusions of up to 2 individual genes are employed for some target proteins in order to expand the array of antibodies being detected while controlling costs and complexity of the assay. (TritrypDb.org identifiers: Tc1= fusion of TcBrA4_0116860 and TcYC6_0028190; Tc2= fusion of TcBrA4_0088420 and TcBrA4_0101960; Tc3 = fusion of TcBrA4_0104680 and TcBrA4_0101980; Tc4= fusion of TcBrA4_0028480 and TcBrA4_0088260; Tc5 = fusion of TcYC6_0100010 and TcBrA4_0074300; Tc7 = fusion of TcYC6_0083710 and TcBrA4_0130080; Tc8 = TcYC6_0037170; Tc11 = TcYC6_0124160; Tc17 = fusion of TcBrA4_0028230 and TcBrA4_0029760; Kn107 = TcCLB.508355.250; G10 = TcCLB.504199.20). Macaque antibody binding to individual beads in the Multiplex assays was detected with donkey anti-human IgG (H+L) conjugated to phycoerythrin (Jackson ImmunoResearch) in a 1:200 dilution.

[2] = as above; assay type: in vivo, rhesus macaques (Macaca mulatta); conditions: treated animal T19
Method: as §1

Q: With Cc1c(C(=O)N[C@H](C(=O)OCC2CCOCC2)C(C)C)ccc2c1B(O)OC2 [AN15368] as the compound, how does the “IgG response to Tc lysate (50)” value ([1]; 2018-01-23) read?
A: 2937.3

Q: And the “IgG response to G10 (36)” value ([1]; 2018-02-27)?
A: 83.0

Q: And the “IgG response to Kn107 (20)” value ([1]; 2018-02-27)?
A: -14.5

Q: What about the “IgG response to Tc1 (3)” value ([1]; 2018-02-27) of the same compound?
A: 2826.0

Q: And the “IgG response to Tc2 (6)” value ([1]; 2018-02-27)?
A: 413.5

Q: What about the “IgG response to Tc3 (11)” value ([1]; 2018-02-27) of the same compound?
A: 17.5

Q: What about the “IgG response to Tc4 (16)” value ([1]; 2018-02-27) of the same compound?
A: 111.0

Q: What about the “IgG response to Tc5 (22)” value ([1]; 2018-02-27) of the same compound?
A: 6.8

Q: And the “IgG response to Tc7 (27)” value ([1]; 2018-02-27)?
A: 1831.8

Q: What about the “IgG response to Tc8 (31)” value ([1]; 2018-02-27) of the same compound?
A: 11208.3

Q: And the “IgG response to Tc11 (35)” value ([1]; 2018-02-27)?
A: 163.8

Q: And the “IgG response to Tc17 (51)” value ([1]; 2018-02-27)?
A: 1943.5

Q: And the “IgG response to Tc lysate (50)” value ([1]; 2018-02-27)?
A: 1833.0

Q: What about the “IgG response to G10 (36)” value ([1]; 2018-03-28) of the same compound?
A: -25.5

Q: What about the “IgG response to Kn107 (20)” value ([1]; 2018-03-28) of the same compound?
A: 5.5

Q: And the “IgG response to Tc1 (3)” value ([1]; 2018-03-28)?
A: 1762.3

Q: And the “IgG response to Tc2 (6)” value ([1]; 2018-03-28)?
A: 386.3

Q: And the “IgG response to Tc3 (11)” value ([1]; 2018-03-28)?
A: 60.0

Q: And the “IgG response to Tc4 (16)” value ([1]; 2018-03-28)?
A: 6.0

Q: And the “IgG response to Tc5 (22)” value ([1]; 2018-03-28)?
A: 32.5

Q: And the “IgG response to Tc7 (27)” value ([1]; 2018-03-28)?
A: 1344.3

Q: And the “IgG response to Tc8 (31)” value ([1]; 2018-03-28)?
A: 8779.3

Q: And the “IgG response to Tc11 (35)” value ([1]; 2018-03-28)?
A: 66.5

Q: And the “IgG response to Tc17 (51)” value ([1]; 2018-03-28)?
A: 1378.0

Q: And the “IgG response to Tc lysate (50)” value ([1]; 2018-03-28)?
A: 1572.0

Q: What about the “IgG response to G10 (36)” value ([1]; 2019-02-19) of the same compound?
A: -6.3

Q: What about the “IgG response to Kn107 (20)” value ([1]; 2019-02-19) of the same compound?
A: 9.8

Q: And the “IgG response to Tc1 (3)” value ([1]; 2019-02-19)?
A: 1092.5

Q: What about the “IgG response to Tc2 (6)” value ([1]; 2019-02-19) of the same compound?
A: 189.8

Q: And the “IgG response to Tc3 (11)” value ([1]; 2019-02-19)?
A: 63.8

Q: And the “IgG response to Tc4 (16)” value ([1]; 2019-02-19)?
A: 9.0

Q: What about the “IgG response to Tc5 (22)” value ([1]; 2019-02-19) of the same compound?
A: 22.0

Q: What about the “IgG response to Tc7 (27)” value ([1]; 2019-02-19) of the same compound?
A: 910.3

Q: And the “IgG response to Tc8 (31)” value ([1]; 2019-02-19)?
A: 5960.0

Q: What about the “IgG response to Tc11 (35)” value ([1]; 2019-02-19) of the same compound?
A: 51.0

Q: What about the “IgG response to Tc17 (51)” value ([1]; 2019-02-19) of the same compound?
A: 927.0

Q: And the “IgG response to Tc lysate (50)” value ([1]; 2019-02-19)?
A: 1211.8

Q: And the “IgG response to G10 (36)” value ([1]; 2020-06-18)?
A: -46.3

Q: What about the “IgG response to Kn107 (20)” value ([1]; 2020-06-18) of the same compound?
A: 15.0

Q: And the “IgG response to Tc1 (3)” value ([1]; 2020-06-18)?
A: 454.3

Q: And the “IgG response to Tc2 (6)” value ([1]; 2020-06-18)?
A: 7.3

Q: And the “IgG response to Tc3 (11)” value ([1]; 2020-06-18)?
A: 76.3

Q: And the “IgG response to Tc4 (16)” value ([1]; 2020-06-18)?
A: 6.0

Q: And the “IgG response to Tc5 (22)” value ([1]; 2020-06-18)?
A: 2.0

Q: And the “IgG response to Tc7 (27)” value ([1]; 2020-06-18)?
A: 373.3

Q: And the “IgG response to Tc8 (31)” value ([1]; 2020-06-18)?
A: 3159.8

Q: What about the “IgG response to Tc11 (35)” value ([1]; 2020-06-18) of the same compound?
A: 48.5

Q: And the “IgG response to Tc17 (51)” value ([1]; 2020-06-18)?
A: 793.0

Q: What about the “IgG response to Tc lysate (50)” value ([1]; 2020-06-18) of the same compound?
A: 640.8

Q: What about the “IgG response to G10 (36)” value ([1]; 2021-05-20) of the same compound?
A: 11.0

Q: And the “IgG response to Kn107 (20)” value ([1]; 2021-05-20)?
A: 65.5

Q: What about the “IgG response to Tc1 (3)” value ([1]; 2021-05-20) of the same compound?
A: 42.3

Q: What about the “IgG response to Tc2 (6)” value ([1]; 2021-05-20) of the same compound?
A: -7.8

Q: And the “IgG response to Tc3 (11)” value ([1]; 2021-05-20)?
A: 3.8

Q: And the “IgG response to Tc4 (16)” value ([1]; 2021-05-20)?
A: -20.3

Q: What about the “IgG response to Tc5 (22)” value ([1]; 2021-05-20) of the same compound?
A: 1.5

Q: And the “IgG response to Tc7 (27)” value ([1]; 2021-05-20)?
A: 293.3

Q: And the “IgG response to Tc8 (31)” value ([1]; 2021-05-20)?
A: 1814.0

Q: And the “IgG response to Tc11 (35)” value ([1]; 2021-05-20)?
A: 133.3

Q: And the “IgG response to Tc17 (51)” value ([1]; 2021-05-20)?
A: 399.3

Q: And the “IgG response to Tc lysate (50)” value ([1]; 2021-05-20)?
A: 384.5

Q: What about the “IgG response to GFP (58)” value ([2]; 2017-09-13) of the same compound?
A: 58.5

Q: And the “IgG response to GFP (58)” value ([2]; 2017-11-17)?
A: -25.0

Q: What about the “IgG response to GFP (58)” value ([2]; 2017-12-06) of the same compound?
A: 27.0

Q: And the “IgG response to GFP (58)” value ([2]; 2017-12-20)?
A: -24.3

Q: What about the “IgG response to GFP (58)” value ([2]; 2018-01-09) of the same compound?
A: 103.5

Q: And the “IgG response to GFP (58)” value ([2]; 2018-01-23)?
A: -17.8

Q: What about the “IgG response to GFP (58)” value ([2]; 2018-02-27) of the same compound?
A: -110.5

Q: And the “IgG response to GFP (58)” value ([2]; 2018-03-28)?
A: -15.8

Q: And the “IgG response to GFP (58)” value ([2]; 2019-02-19)?
A: -19.0

Q: What about the “IgG response to GFP (58)” value ([2]; 2020-06-18) of the same compound?
A: -50.3

Q: What about the “IgG response to GFP (58)” value ([2]; 2021-05-20) of the same compound?
A: -25.5
